These are literature values, as cited in patent publication US20180071214A1, “Pharmaceutical Oral Dose Formulation and Composition of Matter” (priority 2016, published 2018).

The conditions of data set [1]: p-glycoprotein substrate.

As for `CC[C@]1(O)C[C@@H]2CN(CCc3c([nH]c4ccccc34)[C@@](C(=O)OC)(c3cc4c(cc3OC)N(C)[C@H]3[C@@](O)(C(=O)OC)[C@H](OC(C)=O)[C@]5(CC)C=CCN6CC[C@]43[C@@H]65)C2)C1` [vinblastinee], the “tissue effect after intravenous injection” value was “severe tissue irritation and even damage”. For the same compound, in data set [1], the intestinal absorption result is recorded as “negligible intestinal absorption”.
